For test [1], the target named is T1, human mAChRM1 (Homo sapiens, UniProt P11229).
T1 construct: host or cells: CHO-K1
T1 sequence (P11229 1-460): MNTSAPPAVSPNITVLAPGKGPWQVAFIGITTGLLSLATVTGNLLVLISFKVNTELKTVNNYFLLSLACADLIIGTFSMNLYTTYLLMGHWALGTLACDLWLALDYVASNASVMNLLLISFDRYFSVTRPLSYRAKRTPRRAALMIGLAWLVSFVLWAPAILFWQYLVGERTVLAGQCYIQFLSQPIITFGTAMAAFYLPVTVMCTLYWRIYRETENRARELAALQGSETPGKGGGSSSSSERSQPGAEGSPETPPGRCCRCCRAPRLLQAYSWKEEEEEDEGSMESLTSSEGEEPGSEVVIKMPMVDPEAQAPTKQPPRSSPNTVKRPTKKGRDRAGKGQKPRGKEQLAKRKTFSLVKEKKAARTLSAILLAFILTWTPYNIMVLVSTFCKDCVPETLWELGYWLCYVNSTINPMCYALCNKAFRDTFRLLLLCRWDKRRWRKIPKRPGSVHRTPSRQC
As to the kind of experiment: mAChR M1 cell-based functional assay (calcium mobilization), positive allosteric modulator activity: increase in the EC20 acetylcholine response. To be noted: for Emax: PAM mode; for EC50: read-out: PAM Activity Human M1 EC50. The procedure, abridged:
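Potentiation is scored as the rise in an EC20 acetylcholine-evoked calcium signal across 11-point (1:3) compound series, fitted with a four-parameter logistic equation to give EC50 and Emax. Read-out is Fluo-4 fluorescence ratio in hM1-transfected CHO-K1 cells, measured kinetically on FDSS.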
On the technique in general: A change in cytosolic calcium serves as a functional read-out for many receptors and channels.

Test [2] concerns the target T1, human mAChRM1. Put plainly: mAChR M1 cell-based functional assay (calcium mobilization), agonist activity upon compound addition, Emax relative to acetylcholine maximum. To be noted: for Agonist Activity Human M1 EC50 / EC50: calcium mobilization upon compound addition; for Emax: relative to the maximum for acetylcholine. The procedure, abridged: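 Emax is given as a percentage of the maximal acetylcholine response, from four-parameter curves of compound-evoked calcium mobilization. Human M1-transfected CHO-K1 cells carried Fluo-4 dye, and compound (11 concentrations, 1:3 steps) was applied at 4 s of a 300 s kinetic fluorescence recording.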

Where [3] appears, read: increase in the EC20 acetylcholine response.

Where only a bound is given, the exact number is not on record here.

Consider `CC(C)(O)c1ccc(-c2cc(F)c(CN3Cc4cccnc4C3=O)c(F)c2)cc1` [Compound 117, 6-((3,5-difluoro-4′-(2-hydroxypropan-2-yl)-[1,1′-biphenyl]-4-yl)methyl)-5,6-dihydro-7H-pyrrolo[3,4-b]pyridin-7-one], for which the Emax (in general, the greatest response seen or fitted, relative to the assay's reference) on human mAChRM1 [1] stood at 68%. Moreover, at human mAChRM1 [1] (setting [3]), the EC50 – broadly, the midpoint of the concentration-response curve – worked out at 1.45 µM. The “Agonist Activity Human M1 EC50” value on human mAChRM1 [2] was “inactive”.
`Cn1cc2c(-c3cc(F)c(CN4Cc5ncccc5C4=O)c(Cl)c3)ccc(C(C)(C)O)c2n1` [Compound 61, 6-(2-chloro-6-fluoro-4-(7-(2-hydroxypropan-2-yl)-2-methyl-2H-indazol-4-yl)benzyl)-6,7-dihydro-5H-pyrrolo[3,4-b]pyridin-5-one]: the Emax on human mAChRM1 [1] is 70%; at human mAChRM1 [2], 18%. Moreover, the EC50 turned out to be 0.103 µM on human mAChRM1 [1] (setting [3]) and 4.61 µM at human mAChRM1 [2].
As for `CC(C)(O)c1cccc(-c2cc(F)c(CN3Cc4ncccc4C3=O)c(F)c2)c1` [Compound 43, 6-((3,5-difluoro-3′-(2-hydroxypropan-2-yl)-[1,1′-biphenyl]-4-yl)methyl)-6,7-dihydro-5H-pyrrolo[3,4-b]pyridin-5-one], the Emax on human mAChRM1 [1] amounted to 64%. For the same molecule, the EC50 at human mAChRM1 [1] (setting [3]) worked out at 3.21 µM. Moreover, at human mAChRM1 [2], the “Agonist Activity Human M1 EC50” value was “inactive”.
For the molecule `Cn1cc2c(-c3cc(F)c(CN4Cc5ncccc5C4=O)c(F)c3)ccc(C(C)(C)O)c2n1` [Compound 1, 6-(2,6-difluoro-4-(7-(2-hydroxypropan-2-yl)-2-methyl-2H-indazol-4-yl)benzyl)-6,7-dihydro-5H-pyrrolo[3,4-b]pyridin-5-one], the maximal response (Emax) on human mAChRM1 [1] amounted to 78%; at human mAChRM1 [2], 22%. Moreover, the EC50 stood at 0.059 µM on human mAChRM1 [1] (setting [3]) and 2.74 µM at human mAChRM1 [2].
Consider `Cc1cc(-c2ccc(C(C)(C)O)cc2)cc(F)c1CN1Cc2ncccc2C1=O` [Compound 9, 6-((3-fluoro-4′-(2-hydroxypropan-2-yl)-5-methyl-[1,1′-biphenyl]-4-yl)methyl)-6,7-dihydro-5H-pyrrolo[3,4-b]pyridin-5-one], for which, at human mAChRM1 [1], the maximal response (Emax) is 76%. Moreover, at human mAChRM1 [1] (setting [3]), the EC50 was determined as 1.33 µM. The “Agonist Activity Human M1 EC50” value on human mAChRM1 [2] was “inactive”.
`CC[C@@](C)(O)c1ccc(-c2cc(F)c(CN3Cc4ncccc4C3=O)c(F)c2)c2cn(C)nc12` [Compound 102, (R)-6-(2,6-difluoro-4-(7-(2-hydroxybutan-2-yl)-2-methyl-2H-indazol-4-yl)benzyl)-6,7-dihydro-5H-pyrrolo[3,4-b]pyridin-5-one]: the maximal response (Emax) at human mAChRM1 [1] was 85%. For the same molecule, the EC50 on human mAChRM1 [1] (setting [3]) came to 0.359 µM. Moreover, the “Agonist Activity Human M1 EC50” value on human mAChRM1 [2] is “inactive”.
For the molecule `Cn1cc2c(-c3cc(F)c(CN4Cc5ncccc5C4=O)c(F)c3)ccc(C3(O)CNC3)c2n1` [Compound 114, 6-(2,6-Difluoro-4-(7-(3-hydroxyazetidin-3-yl)-2-methyl-2H-indazol-4-yl)benzyl)-6,7-dihydro-5H-pyrrolo[3,4-b]pyridin-5-one], at human mAChRM1 [1], the Emax came out at 56%. In addition, the EC50 at human mAChRM1 [1] (setting [3]) was at least 10 µM. Moreover, the “Agonist Activity Human M1 EC50” value on human mAChRM1 [2] was “inactive”.
Regarding `CC(C)(O)c1ccc(-c2ccc(CN3Cc4ncccc4C3=O)c(F)c2)c2ccccc12` [Compound 73, 6-(2-fluoro-4-(4-(2-hydroxypropan-2-yl)naphthalen-1-yl)benzyl)-6,7-dihydro-5H-pyrrolo[3,4-b]pyridin-5-one], the Emax on human mAChRM1 [1] came out at 58%. Further, the EC50 on human mAChRM1 [1] (setting [3]) is at least 10 µM. Moreover, the “Agonist Activity Human M1 EC50” value at human mAChRM1 [2] is “inactive”.
In the same order, the values of `Cn1cc2c(-c3cnc(CN4Cc5ncccc5C4=O)cn3)ccc(C(C)(C)O)c2n1` [Compound 109, 6-((5-(7-(2-hydroxypropan-2-yl)-2-methyl-2H-indazol-4-yl)pyrazin-2-yl)methyl)-6,7-dihydro-5H-pyrrolo[3,4-b]pyridin-5-one] are 70%, at least 10 µM and “inactive”.
Consider `Cc1cc(-c2ccc(C(C)(C)O)c3nn(C)cc23)ccc1CN1Cc2ncccc2C1=O` [Compound 58, 6-(4-(7-(2-hydroxypropan-2-yl)-2-methyl-2H-indazol-4-yl)-2-methylbenzyl)-6,7-dihydro-5H-pyrrolo[3,4-b]pyridin-5-one], for which the results for the Emax on human mAChRM1 [1] and on human mAChRM1 [2] were 71% and 23%, respectively. Also, the EC50 on human mAChRM1 [1] (setting [3]) is 0.278 µM; at human mAChRM1 [2], at least 10 µM.
As for `CCC(O)(CC)c1ccc(-c2cc(F)c(CN3Cc4ncccc4C3=O)c(F)c2)c2cn(C)nc12` [Compound 54, 6-(2,6-difluoro-4-(7-(3-hydroxypentan-3-yl)-2-methyl-2H-indazol-4-yl)benzyl)-6,7-dihydro-5H-pyrrolo[3,4-b]pyridin-5-one], on human mAChRM1 [1], the Emax was 66%. The EC50 on human mAChRM1 [1] (setting [3]) came out at 2.29 µM. The “Agonist Activity Human M1 EC50” value on human mAChRM1 [2] was “inactive”.
As for `Cc1cc(-c2cc(C(C)(C)O)c3nn(C)cc3c2)cc(F)c1CN1Cc2ncccc2C1=O` [Compound 50, 6-(2-fluoro-4-(7-(2-hydroxypropan-2-yl)-2-methyl-2H-indazol-5-yl)-6-methylbenzyl)-6,7-dihydro-5H-pyrrolo[3,4-b]pyridin-5-one], the maximal response (Emax) on human mAChRM1 [1] worked out at 66%. Also, at human mAChRM1 [1] (setting [3]), the EC50 is 0.784 µM. Further, the “Agonist Activity Human M1 EC50” value on human mAChRM1 [2] was “inactive”.
With `CC(C)(O)c1ccc(-c2ccc(CN3Cc4cccnc4C3=O)cc2)cc1` [Compound 128, 6-((4′-(2-hydroxypropan-2-yl)-[1,1′-biphenyl]-4-yl)methyl)-5,6-dihydro-7H-pyrrolo[3,4-b]pyridin-7-one], the Emax at human mAChRM1 [1] came out at 57%. Moreover, the EC50 at human mAChRM1 [1] (setting [3]) was 7.14 µM. Also, the “Agonist Activity Human M1 EC50” value on human mAChRM1 [2] is “inactive”.
`C[C@@H](c1c(F)cc(-c2ccc(C(C)(C)O)c3nn(C)cc23)cc1F)N1Cc2ncccc2C1=O` [Compound 98, (S)-6-(1-(2,6-difluoro-4-(7-(2-hydroxypropan-2-yl)-2-methyl-2H-indazol-4-yl)phenyl)ethyl)-6,7-dihydro-5H-pyrrolo[3,4-b]pyridin-5-one]: the maximal response (Emax) on human mAChRM1 [1] stood at 80%. Moreover, on human mAChRM1 [1] (setting [3]), the EC50 amounted to 1.12 µM. Further, the “Agonist Activity Human M1 EC50” value at human mAChRM1 [2] is “inactive”.
Take `CC(C)(O)c1ccc(-c2cc(F)c(CN3Cc4ncccc4C3=O)c(F)c2)c2ncccc12` [Compound 37, 6-(2,6-difluoro-4-(5-(2-hydroxypropan-2-yl)quinolin-8-yl)benzyl)-6,7-dihydro-5H-pyrrolo[3,4-b]pyridin-5-one]: the “PAM Activity Human M1 EC50” value at human mAChRM1 [1] (setting [3]) is “inactive”. The “Agonist Activity Human M1 EC50” value at human mAChRM1 [2] is “inactive”.
Take `CC(C)(O)c1ccc(-c2cc(F)c(CN3Cc4cccnc4C3=O)c(Cl)c2)cc1` [Compound 120, 6-((3-chloro-5-fluoro-4′-(2-hydroxypropan-2-yl)-[1,1′-biphenyl]-4-yl)methyl)-5,6-dihydro-7H-pyrrolo[3,4-b]pyridin-7-one]: the maximal response (Emax) at human mAChRM1 [1] was determined as 66%. The EC50 on human mAChRM1 [1] (setting [3]) amounted to 3.7 µM. The “Agonist Activity Human M1 EC50” value on human mAChRM1 [2] was “inactive”.
Consider `Cn1cc2c(-c3cc(F)c(CN4Cc5ncccc5C4=O)c(C(F)(F)F)c3)ccc(C(C)(C)O)c2n1` [Compound 76, 6-(2-fluoro-4-(7-(2-hydroxypropan-2-yl)-2-methyl-2H-indazol-4-yl)-6-(trifluoromethyl)benzyl)-6,7-dihydro-5H-pyrrolo[3,4-b]pyridin-5-one], for which the Emax on human mAChRM1 [1] turned out to be 80%. The EC50 on human mAChRM1 [1] (setting [3]) is 0.439 µM. Moreover, the “Agonist Activity Human M1 EC50” value on human mAChRM1 [2] is “inactive”.

Source of the values: patent publication US20260138978A1, “POSITIVE ALLOSTERIC MODULATORS OF THE MUSCARINIC ACETYLCHOLINE RECEPTOR M1” (Vanderbilt University, priority 2022, published 2026).
